Measurements reported in patent US6479487B1, “6, 9-disubstituted 2-[trans-(4-aminocyclohexyl)amino] purines” (Aventis Pharmaceuticals Inc., priority 1998, dated 2002).
Where “and” joins values, the source holds several entries; their conditions need not be identical. Equal values may be shown once. Where a name gives a salt, the structure may show the parent alone. Read-outs that look alike come from different tables or passages of the source.

What was measured:
[1] = tested on: DMS-114; assay: In vitro tumor cell proliferation, DMS-114; format: cell-based, human; settings: many values given with an undefined *, read-out: In vitro Tumor Cell Proliferation (IC50, μM) Lung DMS-114
Method in brief: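 Human small cell lung carcinoma DMS-114 cells plated overnight, then drug-treated for 3 days, medium and drug renewed, and incubated 4 more days. Growth read by sulforhodamine B staining after TCA fixation; alternatively by CyQUANT after 3 days' drug exposure and freezing at −80 °C.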

[2] = tested on: HT-29; assay: In vitro tumor cell proliferation, HT-29; format: cell-based, human; settings: many values given with an undefined *, read-out: In vitro Tumor Cell Proliferation (IC50, μM) Colon HT-29
Method in brief: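 HT-29 cells seeded overnight at 37° C, then exposed to drug for 3 days, refed with fresh drug-containing medium for 4 more days. Proliferation read by sulforhodamine B staining after TCA fixation; alternatively by CyQUANT after freezing plates at −80° C following 3 days' drug exposure.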

[3] = tested on: DU145; assay: In vitro tumor cell proliferation, DU145; format: cell-based, human; settings: many values given with an undefined *, read-out: In vitro Tumor Cell Proliferation (IC50, μM) Prostate DU145
Method in brief: (§1)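 Tumor cells were seeded overnight at 37° C, then exposed to drug diluted in culture medium for 3 days, refed with fresh drug-containing medium and kept 4 more days. Cells were fixed with 10% trichloroacetic acid and stained with 0.4% sulforhodamine B; alternatively, CyQUANT read proliferation after 3 days' drug exposure.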

[4] = biological target: T1, cdk4/cyclin D1 (Homo sapiens, UniProt P11802); assay: Cyclin-dependent Kinase 4 Assay (cdk4/cyclin D1, GST-Rb substrate); format: biochemical; settings: cdk4/cyclin D1 insect cell lysate, 10 μM ATP, 30 min at 37° C., several values = separate determinations, read-out: CDK4 Inhibition IC50
T1 construct: made in house; host or cells: Sf9 insect cells (Bac-to-Bac baculovirus, pFastBac)
T1 sequence (P11802 whole entry): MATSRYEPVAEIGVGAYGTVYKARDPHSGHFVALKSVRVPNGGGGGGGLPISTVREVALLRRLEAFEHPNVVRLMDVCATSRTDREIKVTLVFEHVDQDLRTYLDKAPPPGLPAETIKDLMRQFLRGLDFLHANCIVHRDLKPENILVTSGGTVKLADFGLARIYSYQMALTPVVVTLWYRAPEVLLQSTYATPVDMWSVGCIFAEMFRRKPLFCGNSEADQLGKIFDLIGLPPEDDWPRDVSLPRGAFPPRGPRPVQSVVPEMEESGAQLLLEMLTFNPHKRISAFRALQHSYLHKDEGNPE
T1 sequence (P24385 whole entry partner): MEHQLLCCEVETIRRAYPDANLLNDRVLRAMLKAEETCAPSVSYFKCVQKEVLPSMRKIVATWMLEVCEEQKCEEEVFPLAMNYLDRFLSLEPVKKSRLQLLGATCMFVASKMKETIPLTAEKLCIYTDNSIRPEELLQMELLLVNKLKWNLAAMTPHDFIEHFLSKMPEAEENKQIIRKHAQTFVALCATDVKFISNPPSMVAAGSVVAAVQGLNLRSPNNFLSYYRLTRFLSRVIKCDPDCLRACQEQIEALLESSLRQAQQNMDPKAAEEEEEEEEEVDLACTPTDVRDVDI
Method in brief: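 Insect-cell lysate of coexpressed cdk4/cyclin D1 (0.1 μg) acts on GST-Rb (0.5 μg) bound to glutathione-Sepharose, in 50 mM HEPES pH 7.5, 10 mM MgCl2, 1 mM EGTA. Reaction runs 30 min at 37 °C, then is stopped by filtration and TNEN washes. Rb phosphorylation read by scintillation counting; IC50 derived.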

[5] = tested on: MDA-MB-231; assay: In vitro tumor cell proliferation, MDA-MB-231; format: cell-based, human; settings: sulforhodamine B or CyQUANT assay, many values given with an undefined *, read-out: In vitro Tumor Cell Proliferation (IC50, μM) Breast MDA-MB-231
Method in brief: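 Cells plated overnight at 37 °C, then exposed to drug for 3 days, refed with fresh drug and incubated 4 more days. Read-out by sulforhodamine B staining after TCA fixation; alternatively, CyQUANT after 3-day drug exposure and freezing at −80 °C.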

[6] = biological target: T2, cdk2/cyclin E (Homo sapiens, UniProt P24941); assay: Cyclin-Dependent Kinase 2 Assay (cdk2/cyclin E, GST-Rb substrate); format: biochemical; settings: recombinant cdk2/cyclin E, 10 μM ATP, 30 min at 30° C., several values in a cell = separate determinations, read-out: CDK-2 Inhibition IC50
T2 construct: made in house; host or cells: insect cells (baculovirus co-infection)
Method: Substrate: GST-Rb as described above for cdk4/cyclin D1
Assay conditions for cdk2/cyclin E were identical to those for cdk4/cyclin D1 including the substrate. The concentration of recombinant cdk2/cyclin E in the assay was 0.1 μg per 100 μl assay. Incubation was for 30 min at 30° C.

[7] = tested on: PC-3; assay: In vitro tumor cell proliferation, PC-3; format: cell-based, human; settings: many values given with an undefined *, read-out: In vitro Tumor Cell Proliferation (IC50, μM) Prostate PC-3
Method in brief: as §1

[8] = tested on: MDA-MB-435; assay: In vitro tumor cell proliferation, MDA-MB-435; format: cell-based; settings: values given with an undefined *, read-out: In vitro Tumor Cell Proliferation (IC50, μM) Breast MDA-MB-435
Method in brief: as §1

[9] = tested on: A549; assay: In vitro tumor cell proliferation, A549; format: cell-based, human; settings: many values given with an undefined *, read-out: In vitro Tumor Cell Proliferation (IC50, μM) Lung A549
Method in brief: as §1

[10] = tested on: Colo-205; assay: In vitro tumor cell proliferation, Colo-205; format: cell-based; settings: values given with an undefined *, read-out: In vitro Tumor Cell Proliferation (IC50, μM) Colon Colo-205
Method in brief: as §1

[11] = Homo sapiens, MDA-MB-231, MDA-MB-231
[12] = Homo sapiens, MDA-MB-435, MDA-MB-435
[13] = Homo sapiens, COLO 205, Colo-205

Row | Compound | IC50 ([1]; DMS-114, trihydrochloride) [µM] | IC50 ([1]; Homo sapiens, DMS-114, DMS-114) [µM] | IC50 ([2]; HT-29, trihydrochloride) [µM] | IC50 ([2]; Homo sapiens, HT-29, HT-29) [µM] | IC50 ([3]; DU145, trihydrochloride) [µM] | IC50 ([3]; Homo sapiens, DU-145, DU145) [µM] | IC50 [4] | IC50 [5, 11] [µM] | IC50 ([5]; MDA-MB-231, trihydrochloride) [µM] | IC50 [6] | IC50 ([7]; Homo sapiens, PC-3, PC-3) [µM] | IC50 ([7]; PC-3, trihydrochloride) [µM] | IC50 [8, 12] [µM] | IC50 ([8]; MDA-MB-435, trihydrochloride) [µM] | IC50 ([9]; A549, trihydrochloride) [µM] | IC50 ([9]; Homo sapiens, A549, A549) [µM] | IC50 [10, 13] [µM] | IC50 ([10]; Colo-205, trihydrochloride) [µM]
1 | N[C@H]1CC[C@H](Nc2nc(NC3CCN(Cc4cccc(F)c4)CC3)c3ncn(C4CCCC4)c3n2)CC1 [Example 147-j, 2-[Trans-(4-aminocyclohexyl)amino]-6-[4-[1-(3-fluorobenzyl)]piperidinylamino]-9-cyclopentylpurine trihydrochloride] | 0.25 | 0.37 | 0.22 | 0.3 | 0.2 | 0.21 | 1.3 µM and 0.72 µM | 0.2 | 0.21 | 0.2 µM and 0.21 µM | 0.17 | 0.26 | 0.27 | 0.3 | 0.14 | 0.15 | 0.17 | –
2 | N[C@H]1CC[C@H](Nc2nc(NC3CCN(Cc4ccccc4F)CC3)c3ncn(C4CCCC4)c3n2)CC1 [Example 147-k, 2-[Trans-(4-aminocyclohexyl)amino]-6-[4-[1-(2-fluorobenzyl)]piperidinylamino]-9-cyclopentylpurine trihydrochloride] | 0.29 | 0.45 | 0.26 | 0.4 | 0.15 | 0.3 | 2.9 µM | – | 0.32 | 0.2 µM and 0.17 µM | 0.35 | 0.34 | 0.39 | – | 0.16 | 0.29 | 0.26 | 0.15
3 | N[C@H]1CC[C@H](Nc2nc(NC3CCN(Cc4ccc(F)cc4)CC3)c3ncn(C4CCCC4)c3n2)CC1 [Example 147-l, 2-[Trans-(4-aminocyclohexyl)amino]-6-[4-[1-(4-fluorobenzyl)]piperidinylamino]-9-cyclopentylpurine trihydrochloride] | 0.43 | 0.48 | 0.4 | 0.37 | 0.29 | 0.3 | 2 µM and 2.7 µM and 1.3 µM | 0.33 | 0.29 | 0.26 µM and 0.17 µM and 0.28 µM | – | 0.41 | 0.46 | – | 0.19 | 0.26 | 0.26 | 0.19
4 | N[C@H]1CC[C@H](Nc2nc(NC3CCN(Cc4cccc(C(F)(F)F)c4)CC3)c3ncn(C4CCCC4)c3n2)CC1 [Example 147-m, 2-[Trans-(4-aminocyclohexyl)amino]-6-[4-[1-(3-trifluoromethylbenzyl)]piperidinylamino]-cyclopentylpurine trihydrochloride] | 0.32 | 0.29 | 0.35 | 0.34 | 0.35 | 0.32 | 0.37 µM | 0.32 | 0.33 | 0.065 µM and 0.077 µM | 0.25 | 0.5 | 0.42 | 0.56 | 0.22 | 0.17 | 0.18 | 0.17
5 | N[C@H]1CC[C@H](Nc2nc(NC3CCN(Cc4c(F)cccc4Cl)CC3)c3ncn(C4CCCC4)c3n2)CC1 [Example 147-n, 2-[Trans-(4-aminocyclohexyl)amino]-6-[4-[1-(2-chloro-6-fluorobenzyl)]piperidinylamino]-cyclopentylpurine trihydrochloride] | 0.8 | 1.1 | 0.64 | 0.71 | 0.59 | 0.6 | 1.6 µM and 3.1 µM | 0.81 | 0.72 | 0.16 µM and 0.34 µM and 0.44 µM | 0.73 | 0.93 | 0.89 | 1 | 0.33 | 0.39 | 0.44 | 0.32
6 | N[C@H]1CC[C@H](Nc2nc(NC3CCN(Cc4ccc(Cl)c(Cl)c4)CC3)c3ncn(C4CCCC4)c3n2)CC1 [Example 147-o, 2-[Trans-(4-aminocyclohexyl)amino]-6-[4-[1-(3,4-dichlorobenzyl)]piperidinylamino]-9-cyclopentylpurine trihydrochloride] | 0.71 | 0.78 | 0.77 | 0.83 | 0.69 | 0.76 | 1.8 µM | 0.77 | 0.9 | 0.2 µM and 0.16 µM | 0.64 | 0.92 | 0.92 | 1.1 | 0.44 | 0.42 | 0.63 | 0.45
7 | N[C@H]1CC[C@H](Nc2nc(NC3CCN(Cc4ccc5ccccc5c4)CC3)c3ncn(C4CCCC4)c3n2)CC1 [Example 147-p, 2-[Trans-(4-aminocyclohexyl)amino]-6-[4-[1-(2-naphthyl)methyl]piperidinylamino]-9-cyclopentylpurine trihydrochloride] | 0.68 | 0.91 | 0.72 | 0.71 | – | 0.54 | 3.1 µM and 3.9 µM | 0.57 | 0.6 | 0.3 µM and 0.11 µM and 0.36 µM | 0.46 | 0.66 | 0.59 | 0.68 | 0.34 | 0.39 | 0.45 | 0.48
8 | N[C@H]1CC[C@H](Nc2nc(NC3CCN(Cc4cc(Cl)ccc4Cl)CC3)c3ncn(C4CCCC4)c3n2)CC1 [Example 147-r, 2-[Trans-(4-aminocyclohexyl)amino]-6-[4-[1-(2,5-dichlorobenzyl)]piperidinylamino]-9-cyclopentylpurine trihydrochloride] | 0.48 | 0.62 | 0.47 | 0.49 | 0.4 | 0.45 | 7.2 µM and 4.3 µM | – | 0.48 | 0.09 µM and 0.58 µM and 0.55 µM and 0.61 µM | 0.39 | 0.55 | 0.6 | 0.65 | – | 0.33 | 0.32 | 0.38
9 | N[C@H]1CC[C@H](Nc2nc(NC3CCN(CC4CCCCC4)CC3)c3ncn(C4CCCC4)c3n2)CC1 [Example 147-s, 2-[Trans-(4-aminocyclohexyl)amino]-6-[4-(1-cyclohexylmethyl)piperidinylamino]-9-cyclopentylpurine trihydrochloride] | 0.3 | 0.57 | 0.33 | 0.35 | 0.27 | 0.29 | 1.3 µM and 0.62 µM | – | 0.33 | 0.12 µM and 0.1 µM | – | 0.37 | 0.42 | 0.43 | 0.2 | 0.22 | 0.28 | 0.23
